The results in this text go back to patent US20230407243A1, “GENETIC PLATFORM TO INVESTIGATE THE FUNCTIONS OF BACTERIAL DRUG EFFLUX PUMPS” (priority 2022, published 2023).

One assay deals with K-12 wcaC (pCA24N). Kind of assay: microbe, parasite or virus in culture. The settings on record: Escherichia coli, 0.1 mM IPTG. As for the experimental part:
(§1) To enable comparison between efflux production in different genetic backgrounds, each efflux pump-encoding gene was also integrated into the genome of the wild-type BW25113 strain, the single gene deletion mutant from the Keio Collection, and EKO-35. Strains of interest were propagated on LB agar at 37° C. Cell inoculum was prepared using the colony resuspension method and applied to a 96-well well plate (VWR) in technical duplicate, and the minimum inhibitory concentrations were determined according to Clinical & Laboratory Standards Institute (CLSI) protocols in MHB II (Patel J. B. et al, 2015). The plates were incubated for 18 h (Multitron Shaker, Infors HT) at 37° C. with aeration at 900 rpm. The plates were equilibrated to room temperature before the OD600 nm was measured using a BioTek Synergy H1 microplate reader. For interplay profiling, blank subtracted OD600 nm values >0.1 were considered to represent growth.
(§2) To assess fitness of EKO-35 expressing wild-type copies of the genes identified to harbor nonsynonymous mutations, Inventors obtained clones from the E. coli ASKA library (Kitagawa, M. et al., 2005) with the rspA, tufA, pitA, wcaC, gyrB, and yjfC genes carried on plasmids, with gene expression under the control of an IPTG-inducible promoter. The ASKA plasmids were verified using Sanger sequencing and gene expression was induced with 0.1 mM IPTG. In the wild-type E. coli K-12 strain, the plasmids were maintained with 25 μg/mL chloramphenicol.

For the next assay, the system named is ΔtolC wcaC (pCA24N). The assay is described as follows: microbe, parasite or virus in culture. On the procedure:
as §1, §2

In another assay the test system is K-12 gyrB (pCA24N). The assay is described as follows: MIC of strains harboring ASKA plasmids. The settings on record: Escherichia coli, 0.1 mM IPTG. The assay is classed as cell-based.
For a further assay, the system named is ΔtolC gyrB (pCA24N). The assay is classed as cell-based, Escherichia coli.

Converted amounts (≈) assume the structure as drawn.

Regarding `COc1cc(Cc2cnc(N)nc2N)cc(OC)c1OC` [trimethoprim], the MIC turned out to be 0.195 µg/mL in the assay on K-12 wcaC (pCA24N) (Chlor + (25 μg/mL)); 1.56 µg/mL in the assay on K-12 wcaC (pCA24N) (Chlor −); 0.195 µg/mL with ΔtolC wcaC (pCA24N) (Escherichia coli); 0.195 µg/mL in the assay with ΔtolC wcaC (pCA24N) (ΔtolC wcaC, Chlor +, 0.1 mM IPTG).

Take `CO[C@@H]1[C@@H](OC(N)=O)[C@@H](O)[C@H](Oc2ccc3c(O)c(NC(=O)c4ccc(O)c(CC=C(C)C)c4)c(=O)oc3c2C)OC1(C)C` [novobiocin]: the MIC in the assay with K-12 gyrB (pCA24N) (Chlor + (25 μg/mL)) stood at 100 µg/mL; with K-12 gyrB (pCA24N) (Chlor −) it was 400 µg/mL; against ΔtolC gyrB (pCA24N) it was 12.5 µg/mL (≈ 20.4 µM).
